From PubChem BioAssay (NCI)
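Here, GI50 denotes the concentration required for 50% inhibition of growth. TGI marks complete inhibition of growth.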

How the values were obtained:
Assay in all cases: NCI anticancer screen, dose series, 384-well format
[1] = tested on: 786-0 renal
[2] = tested on: A498 renal
[3] = tested on: A549 NSCLC
[4] = tested on: ACHN renal
[5] = tested on: BT-549 breast
[6] = tested on: CAKI-1 renal
[7] = tested on: CCRF-CEM leukemia
[8] = tested on: COLO 205 colon
[9] = tested on: DU-145 prostate
[10] = tested on: EKVX NSCLC
[11] = tested on: HCC-2998 colon
[12] = tested on: HCT-116 colon
[13] = tested on: HCT-15 colon
[14] = tested on: HL-60(TB) leukemia
[15] = tested on: HOP-62 NSCLC
[16] = tested on: HOP-92 NSCLC
[17] = tested on: HT29 colon
[18] = tested on: IGROV1 ovarian
[19] = tested on: K-562 leukemia
[20] = tested on: KM12 colon
[21] = tested on: LOX IMVI melanoma
[22] = tested on: M14 melanoma
[23] = tested on: MALME-3M melanoma
[24] = tested on: MCF7 breast
[25] = tested on: MDA-MB-231 breast
[26] = tested on: MDA-MB-435 melanoma
[27] = tested on: MDA-MB-468 breast
[28] = tested on: MOLT-4 leukemia
[29] = tested on: NCI-H226 lung
[30] = tested on: NCI-H23 lung
[31] = tested on: NCI-H322M lung
[32] = tested on: NCI-H460 NSCLC
[33] = tested on: NCI-H522 lung
[34] = tested on: NCI/ADR-RES ovarian
[35] = tested on: OVCAR-3 ovarian
[36] = tested on: OVCAR-4 ovarian
[37] = tested on: OVCAR-5 ovarian
[38] = tested on: OVCAR-8 ovarian
[39] = tested on: PC-3 prostate
[40] = tested on: RPMI-8226 leukemia
[41] = tested on: RXF 393 renal
[42] = tested on: SF-268 CNS
[43] = tested on: SF-295 CNS
[44] = tested on: SF-539 CNS
[45] = tested on: SK-MEL-2 melanoma
[46] = tested on: SK-MEL-28 melanoma
[47] = tested on: SK-MEL-5 melanoma
[48] = tested on: SK-OV-3 ovarian
[49] = tested on: SN12C renal
[50] = tested on: SNB-19 CNS
[51] = tested on: SNB-75 CNS
[52] = tested on: SR leukemia
[53] = tested on: SW-620 colon
[54] = tested on: T-47D breast
[55] = tested on: TK-10 renal
[56] = tested on: U251 glioblastoma
[57] = tested on: UACC-257 melanoma
[58] = tested on: UACC-62 melanoma
[59] = tested on: UO-31 renal

## C=CC(=O)N1CC[C@@H](Oc2nc(Nc3ccc(N4CCC(N5CCN(C)CC5)CC4)cc3)c(C(N)=O)nc2CC)C1
[1]
  GI50: > 100 µM
  TGI: > 100 µM
[2]
  GI50: > 100 µM
  TGI: > 100 µM
[3]
  GI50: > 100 µM
  TGI: > 100 µM
[4]
  GI50: > 100 µM
  TGI: > 100 µM
[5]
  GI50: > 100 µM
  TGI: > 100 µM
[6]
  GI50: > 100 µM
  TGI: > 100 µM
[7]
  GI50: > 100 µM
  TGI: > 100 µM
[8]
  GI50: > 100 µM
  TGI: > 100 µM
[9]
  GI50: > 100 µM
  TGI: > 100 µM
[10]
  GI50: > 100 µM
  TGI: > 100 µM
[11]
  GI50: > 100 µM
  TGI: > 100 µM
[12]
  GI50: > 100 µM
  TGI: > 100 µM
[13]
  GI50: > 100 µM
  TGI: > 100 µM
[14]
  GI50: > 100 µM
  TGI: > 100 µM
[15]
  GI50: > 100 µM
  TGI: > 100 µM
[16]
  GI50: > 100 µM
  TGI: > 100 µM
[17]
  GI50: > 100 µM
  TGI: > 100 µM
[18]
  GI50: > 100 µM
  TGI: > 100 µM
[19]
  GI50: > 88.9 µM
  TGI: > 100 µM
[20]
  GI50: > 100 µM
  TGI: > 100 µM
[21]
  GI50: > 100 µM
  TGI: > 100 µM
[22]
  GI50: > 100 µM
  TGI: > 100 µM
[23]
  GI50: > 100 µM
  TGI: > 100 µM
[24]
  GI50: > 100 µM
  TGI: > 100 µM
[25]
  GI50: > 100 µM
  TGI: > 100 µM
[26]
  GI50: > 100 µM
  TGI: > 100 µM
[27]
  GI50: > 100 µM
  TGI: > 100 µM
[28]
  GI50: > 100 µM
  TGI: > 100 µM
[29]
  GI50: > 100 µM
  TGI: > 100 µM
[30]
  GI50: > 100 µM
  TGI: > 100 µM
[31]
  GI50: > 100 µM
  TGI: > 100 µM
[32]
  GI50: > 100 µM
  TGI: > 100 µM
[33]
  GI50: > 100 µM
  TGI: > 100 µM
[34]
  GI50: > 100 µM
  TGI: > 100 µM
[35]
  GI50: > 100 µM
  TGI: > 100 µM
[36]
  GI50: > 100 µM
  TGI: > 100 µM
[37]
  GI50: > 100 µM
  TGI: > 100 µM
[38]
  GI50: > 100 µM
  TGI: > 100 µM
[39]
  GI50: > 100 µM
  TGI: > 100 µM
[40]
  GI50: > 100 µM
  TGI: > 100 µM
[41]
  GI50: > 100 µM
  TGI: > 100 µM
[42]
  GI50: > 100 µM
  TGI: > 100 µM
[43]
  GI50: > 100 µM
  TGI: > 100 µM
[44]
  GI50: > 100 µM
  TGI: > 100 µM
[45]
  GI50: > 100 µM
  TGI: > 100 µM
[46]
  GI50: > 100 µM
  TGI: > 100 µM
[47]
  GI50: > 100 µM
  TGI: > 100 µM
[48]
  GI50: > 100 µM
  TGI: > 100 µM
[49]
  GI50: > 100 µM
  TGI: > 100 µM
[50]
  GI50: > 100 µM
  TGI: > 100 µM
[51]
  GI50: > 100 µM
  TGI: > 100 µM
[52]
  GI50: > 87.9 µM
  TGI: > 100 µM
[53]
  GI50: > 100 µM
  TGI: > 100 µM
[54]
  GI50: > 100 µM
  TGI: > 100 µM
[55]
  GI50: > 100 µM
  TGI: > 100 µM
[56]
  GI50: > 100 µM
  TGI: > 100 µM
[57]
  GI50: > 100 µM
  TGI: > 100 µM
[58]
  GI50: > 100 µM
  TGI: > 100 µM
[59]
  GI50: > 100 µM
  TGI: > 100 µM
